Assay results from BindingDB's records for doi:10.1016/j.bmcl.2007.01.009 (Karo Bio, 2007).

Target: T1, Thyroid hormone receptor alpha (Homo sapiens, UniProt P10827)
T1 sequence (P10827 whole entry): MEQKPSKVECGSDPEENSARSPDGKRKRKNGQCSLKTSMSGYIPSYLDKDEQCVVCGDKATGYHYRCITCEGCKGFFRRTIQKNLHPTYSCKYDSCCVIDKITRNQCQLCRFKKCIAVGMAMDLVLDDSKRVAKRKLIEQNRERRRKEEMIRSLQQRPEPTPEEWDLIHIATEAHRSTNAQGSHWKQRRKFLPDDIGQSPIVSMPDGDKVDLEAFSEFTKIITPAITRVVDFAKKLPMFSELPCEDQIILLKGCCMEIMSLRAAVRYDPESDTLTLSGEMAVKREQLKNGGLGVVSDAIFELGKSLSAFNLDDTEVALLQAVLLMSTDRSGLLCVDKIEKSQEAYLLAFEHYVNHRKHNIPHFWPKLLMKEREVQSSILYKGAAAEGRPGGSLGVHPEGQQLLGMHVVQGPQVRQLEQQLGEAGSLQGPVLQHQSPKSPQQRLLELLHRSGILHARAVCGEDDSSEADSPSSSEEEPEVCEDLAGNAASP
Assay: TRalpha-Binding Assay and Thyroid Response Element (TRAFalpha1) Reporter Assay.
Conditions: pH 7; 4 °C
Source text: EC50 is the concentration of compound required to reach or inhibit (agonist or antagonist) 50% of T3-induced TRalpha-activation in CHOK1 cells stably transfected with hTRalpha using alkaline phosphatase reporter assay.

O=C(O)CCc1cc(Br)c(OCc2cccc(Br)c2)c(Br)c1 [3-{3,5-dibromo-4-[(3-bromophenyl)methoxy]phenyl}propanoic acid]
EC50: 380 nM
